Laboratory results: patent publication US20120122180A1, “INC[…] TYPE III […] INTO M[…] OF THE TYPE I AND III […] AND FATTY ACID SYNTHASE FAMILIES” (Salk Institute for Biological Studies, priority 2006, published 2012)

Tests used:
Format in all cases: biochemical
[1] = target: T1, Steely1 C-terminal type III PKS domain (Dictyostelium discoideum, UniProt Q55E72); assay: In vitro polyketide extension assay with [14-C]malonyl-CoA and CoA-linked starters, TLC/autoradiography; settings: heterologously expressed domain, radiolabeled malonyl-CoA extender
T1 construct: poly-histidine (pHIS-8 vector, thrombin-cleavable) (N); made in house; host or cells: E. coli BL21(DE3) or CodonPlus (Stratagene)
T1 sequence (Q55E72 2776-3147): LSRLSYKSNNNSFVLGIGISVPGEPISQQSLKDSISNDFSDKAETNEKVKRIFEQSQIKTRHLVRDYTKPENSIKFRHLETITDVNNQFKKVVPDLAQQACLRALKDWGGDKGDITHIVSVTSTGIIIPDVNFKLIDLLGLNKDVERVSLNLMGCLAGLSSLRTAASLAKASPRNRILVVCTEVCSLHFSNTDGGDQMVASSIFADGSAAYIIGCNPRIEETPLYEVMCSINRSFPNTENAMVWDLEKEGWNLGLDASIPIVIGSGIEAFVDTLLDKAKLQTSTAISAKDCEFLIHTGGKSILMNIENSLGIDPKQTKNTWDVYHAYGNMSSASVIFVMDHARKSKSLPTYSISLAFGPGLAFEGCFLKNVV
Protocol: (§1) These differences in in vitro starter specificity are consistent with the substantial divergence of these steely active site predicted by homology modeling.
(§2) Standard 100 μL in vitro assays of heterologously expressed Steely C-terminal domains using [14-C]malonyl-CoA and various CoA-linked starters were conducted, extracted with ethyl acetate, analyzed by reverse-phase TLC, and visualized by autoradiography as previously reported.

[2] = target: T2, Steely2 C-terminal type III PKS domain (Dictyostelium discoideum, UniProt Q54FI3); assay: as above; settings: heterologously expressed domain, radiolabeled malonyl-CoA extender
T2 construct: poly-histidine (pHIS-8 vector, thrombin-cleavable) (N); made in house; host or cells: E. coli BL21(DE3) or CodonPlus (Stratagene)
T2 sequence (Q54FI3 2595-2968): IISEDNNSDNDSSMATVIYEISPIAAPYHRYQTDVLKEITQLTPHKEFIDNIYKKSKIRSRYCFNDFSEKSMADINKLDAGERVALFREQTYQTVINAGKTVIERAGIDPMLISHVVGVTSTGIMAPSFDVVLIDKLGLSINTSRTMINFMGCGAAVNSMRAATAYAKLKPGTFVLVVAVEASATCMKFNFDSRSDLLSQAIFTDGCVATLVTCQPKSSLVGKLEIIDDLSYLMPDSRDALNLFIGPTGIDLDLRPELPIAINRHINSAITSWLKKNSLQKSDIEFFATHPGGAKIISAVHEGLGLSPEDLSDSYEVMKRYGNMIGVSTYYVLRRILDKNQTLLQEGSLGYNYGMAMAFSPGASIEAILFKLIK
Protocol: as §1, §2

[3] = target: T3, Steely1 type III PKS domain (Dictyostelium discoideum, UniProt Q55E72); assay: HPLC-MS-MS analysis of in vitro assays with unlabeled malonyl-CoA; settings: overnight, Bis-Tris Propane pH 7.0
T3 construct: poly-histidine (pHIS-8 vector, thrombin-cleavable) (N); made in house; host or cells: E. coli BL21(DE3) or CodonPlus (Stratagene)
T3 sequence (Q55E72 2776-3147): T1 sequence (Q55E72 2776-3147)
Protocol: (§3) The related D. discoideum DIF-2 acylphloroglucinol scaffold seems to be derived from a pentanoyl intermediate. Therefore, in vitro assays of each steely C-terminal domain were also primed with butanoyl-CoA (12), as pentanoyl-CoA is not commercially available.
(§4) For HPLC-MS-MS analyses 25 μl injections of similarly prepared overnight reactions (but without organic extraction) buffered with 100 mM Bis-Tris Propane (pH 7.0), using unlabeled malonyl-CoA, were used. LC-MS-MS analyses were carried out on an Agilent 1100 HPLC with an integrated Agilent LC/MSD Trap XCT ion trap mass spectrometer, using a reversed-phase C18 column (4.6×150 mm; Gemini) maintained at 30° C. A gradient mobile phase ramped from 5% to 100% acetonitrile in water (with each solvent containing 0.1% v/v formic acid) between minutes 3 and 13 of a 25-min run using a flow rate of 0.5 ml min^−1 and a 0.1 ml min^−1 post column injection of 20 mM ammonium acetate in water. UV absorbance was monitored at 286 nm.
(§5) PCP was identified by direct HPLC-MS-MS comparison with an authentic synthetic standard, kindly provided by S. Horinouchi and N. Funa. Other hexanoyl- and butanoyl-primed enzymatic products were identified by comparing their relative HPLC elution times and negative MS-MS fragmentation patterns with previously published LC-MS-MS analyses of authentic standards (Funa et al. (2002) “Properties and substrate specificity of RppA, a chalcone synthase-related polyketide synthase in Streptomyces griseus” J Biol Chem 277:4628-4635). EICs with parent ion masses of plausible polyketide products were used to detect trace amounts of minor enzymatic products, but only triketide and tetraketide products were observed.

[4] = target: T4, Steely2 type III PKS domain (Dictyostelium discoideum, UniProt Q54FI3); assay: as above; settings: overnight, Bis-Tris Propane pH 7.0
T4 construct: poly-histidine (pHIS-8 vector, thrombin-cleavable) (N); made in house; host or cells: E. coli BL21(DE3) or CodonPlus (Stratagene)
T4 sequence (Q54FI3 2595-2968): T2 sequence (Q54FI3 2595-2968)
Protocol: as §3, §4, §5

SMILES | polyketide extension activity with the substance as starter [1] | polyketide extension activity with the substance as starter [2] | enzymatic products of starter-primed assay [3] | enzymatic products of starter-primed assay [4]
CC(=O)SCCNC(=O)CCNC(=O)[C@H](O)C(C)(C)COP(=O)(O)OP(=O)(O)OC[C@H]1O[C@@H](n2cnc3c(N)ncnc32)[C@H](O)[C@@H]1OP(=O)(O)O [acetyl-CoA] | Neither enzyme showed significant polyketide extension activity | Neither enzyme showed significant polyketide extension activity |  | 
CCCC(=O)SCCNC(=O)CCNC(=O)[C@H](O)C(C)(C)COP(=O)(O)OP(=O)(O)OC[C@H]1O[C@@H](n2cnc3c(N)ncnc32)[C@H](O)[C@@H]1OP(=O)(O)O [butanoyl-CoA] |  |  | no effect on the cyclization fate | no effect on the cyclization fate
CCCCCC(=O)SCCNC(=O)CCNC(=O)[C@H](O)C(C)(C)COP(=O)(O)OP(=O)(O)OC[C@H]1O[C@@H](n2cnc3c(N)ncnc32)[C@H](O)[C@@H]1OP(=O)(O)O [hexanoyl-CoA] | catalyze iterative polyketide extension | catalyze iterative polyketide extension | produced only triketide (10) and tetraketide (11) lactonization-derived pyrones | catalyzes three rounds of polyketide chain extension and the final CHS-like intramolecular C6 to C1 Claisen condensation
CC(C)CC(=O)SCCNC(=O)CCNC(=O)[C@H](O)C(C)(C)COP(=O)(O)OP(=O)(O)OC[C@H]1O[C@@H](n2cnc3c(N)ncnc32)[C@H](O)[C@@H]1OP(=O)(O)O [isovaleryl-CoA] | not Steely1 would accept | would accept |  | 
CC(C)(COP(=O)(O)OP(=O)(O)OC[C@H]1O[C@@H](n2cnc3c(N)ncnc32)[C@H](O)[C@@H]1OP(=O)(O)O)[C@@H](O)C(=O)NCCC(=O)NCCSC(=O)CC(=O)O [malonyl-CoA] | Neither enzyme showed significant polyketide extension activity | Neither enzyme showed significant polyketide extension activity |  | 
CCCCCCCC(=O)SCCNC(=O)CCNC(=O)[C@H](O)C(C)(C)COP(=O)(O)OP(=O)(O)OC[C@H]1O[C@@H](n2cnc3c(N)ncnc32)[C@H](O)[C@@H]1OP(=O)(O)O [octanoyl-CoA] | accepted | only Steely1 accepted |  | 
CC(C)(COP(=O)(O)OP(=O)(O)OC[C@H]1O[C@@H](n2cnc3c(N)ncnc32)[C@H](O)[C@@H]1OP(=O)(O)O)[C@@H](O)C(=O)NCCC(=O)NCCSC(=O)/C=C/c1ccc(O)cc1 [p-coumaroyl-CoA] | Neither enzyme showed significant polyketide extension activity | Neither enzyme showed significant polyketide extension activity |  | 
